{
  "source": "patent US20240335395A1",
  "about": "“COMPOSITIONS AND METHODS FOR PREVENTING AND/OR TREATING DISEASE ASSOCIATED WITH IL-23 EXPRESSION” (ALLSPIM, priority 2021, published 2024)",
  "key": {"IL-23": {"tested_on": "IL-23", "assay": "IL-23 protein in culture supernatant of RA-patient synovial cells", "assay_type": "cell-based, human", "settings": "increasing concentrations"}, "[1]": {"tested_on": "laser-induced choroidal neovascularization (CNV)", "assay": "Laser-induced CNV in rats, CNV surface on lectin-labelled RPE-choroid flat-mounts", "assay_type": "in vivo, rat", "settings": "intravitreous injection", "protocol": "Animals. All experiments were performed in accordance with the European Communities Council Directive 86/609/EEC and approved by local ethical committees (#2541-2015110210279792 v3). Six- to eight-week-old male Long Evans rats from the Janvier Breeding Center (Le Genest-Saint-Isle, France) were used to create a rat model of choroidal neovascularization (CNV) used as a model of human wet macular degeneration. Laser-induced CNV. After anesthesia and dilation of the pupils, coverslips were positioned on the cornea as a contact glass. […] Animals were sacrificed at 7 days (n=6 per group- and at 16 days (n=6 per group). RPE-choroid flat-mounts and CNV quantifications. Two days after FA examination (time necessary for fluorescein elimination), eyes were enucleated, fixed in 4% PFA for 15 min at room temperature and sectioned at the limbus; the cornea and lens were discarded. The retina was separated from the RPE-choroid complex. Eight radial incisions were made on the RPE-choroid, which was then flat-mounted and post-fixed with acetone for 15 min at −20° C. After washing with 0.1% Triton x100 in PBS, FITC-GSL I-Isolectin B4 (1:200, Vector, AbCys, Paris, France) was applied over night at […] Images of the CNV were captured with a digital video camera coupled to a computer system on an Olympus fluorescence microscope. […]"}, "[2]": {"tested_on": "IBA1 positive macrophage/microglia", "assay": "Laser-induced CNV in rats, IBA-1 positive macrophages on RPE-choroid flat-mounts", "assay_type": "in vivo, rat", "settings": "intravitreous injection", "protocol": "Animals. All experiments were performed in accordance with the European Communities Council Directive 86/609/EEC and approved by local ethical committees (#2541-2015110210279792 v3). Six- to eight-week-old male Long Evans rats from the Janvier Breeding Center (Le Genest-Saint-Isle, France) were used to create a rat model of choroidal neovascularization (CNV) used as a model of human wet macular degeneration. Laser-induced CNV. After anesthesia and dilation of the pupils, coverslips were positioned on the cornea as a contact glass. For rats, six or eight burns were performed 2 to 3 optic disc diameters away from the optic nerve with an Argon laser (532 nm) mounted on a slit lamp (175 mW, 0.1 s and 50 μm). Both eyes of animals received laser induction. The presence of a bubble witnessed the rupture of Bruch's membrane and confirmed a successful laser impact. Treatments. After laser photocoagulation, rats were divided into 3 treatment groups: —Intravitreous injection (IVT) of 2,4-D (identified as “new treatment”, New T), —IVT of vehicle (PBS), —IVT of triamcinolone acetonide (Kenacort® 40 mg/ml; TA) (n=12 rats per group). The IVT consisted of 5 μl injected with a 31G needle mounted on a micro-thin (100 μl) syringe posterior to the limbus, avoiding the lens. IVT was performed immediately after laser had been performed. […]"}},
  "data": [
    {"smiles": "COc1cc(O)c(OC)c(O)c1C(=O)/C=C/c1ccccc1", "note": "[2,4-D, 2′,4′-dihydroxy-3′,6′-dimethoxychalcone]", "values": [
      {"measurement": "concentration of IL-23 protein in the culture supernatant", "setting": "IL-23", "result": "significantly inhibited"},
      {"measurement": "CNV size (surface of lectin positive labelling)", "setting": "[1]", "result": "significantly reduced"},
      {"measurement": "number of infiltrating IBA-1 positive macrophages in CNV", "setting": "[2]", "result": "important reduction"}
    ]}
  ]
}
